Consider 1 compound from patent US20220211861A1, “DRUG CONJUGATES AND METHODS OF USING SAME” (The Board of Trustees of the Leland Staford Junior …, priority 2019, published 2022).

The test system of one experiment is U87MG hip xenografts. The experiment in a line: Pilot therapeutic efficacy study, dosing 3 times per week for 3 weeks. The class given is in vivo, Nu/Nu mice. As for the experimental part:
Using this treatment regimen as a starting point, a preliminary study was set up using 5 mice per treatment group. Mice were inoculated with 5×10^6 U87MG cells in the right flank and tumors were allowed to grow and establish until reaching an approximate area of 30 mm^2. Mice were then randomized into 1 of 4 treatment groups: PBS, KDC, KFDC, or KADC. To keep groups equivalent and provide the highest chance of efficacy for KDC despite its short circulatory half-life, all drug conjugate groups dosed 3 times per week for 3 weeks. Each dose contained the appropriate drug conjugate normalized to 2.38 nmol MMAE (˜0.6 mg/kg KDC, ˜5 mg/kg KFDC, ˜10 mg/kg KADC).

Experiment [1] deals with RFP-expressing U87MG tumor spheroids. Put plainly: Cell spheroid killing assay over time (IncuCyte). In kind it is cell-based. As for the experimental part: (§1) Next, this in vitro model was modified to test if similar cell killing could be visualized in addition to confocal imaging experiments. Spheroids were treated with drug conjugates or MMAE at a range of concentrations. After incubating with drug conjugates for 5 d, media was replaced with fresh media containing SYTOX green. Fluorescence measured by a BioTek Synergy H4 microtiter plate reader was compared to spheroids treated with lysis buffer. […] To visualize this killing over time, spheroids treated with 50 or 100 nM of drug conjugates or MMAE were imaged every 4 h using an IncuCyte.
Spheroids of RFP-expressing U87MG cells were formed by seeding round-bottom, 96-well ultra-low adhesion plates (Corning) with 4×10^3 cells/well and centrifuging at 1000×g for 10 minutes. Spheroids were grown for 2 days before replacing media with 200 μL of fresh media containing 10 nM Cytox Green (ThermoFisher) and 0, 50, or 100 nM KDC, KFDC, KADC, or MMAE. Spheroids were incubated in an IncuCyte S3 Live-Cell Analysis System for 5 d with images collected every 4 h.

The subject of experiment [2] is RFP-expressing U87MG cells. Put plainly: Inhibition of cell proliferation and cytotoxicity over time (IncuCyte, SYTOX green). The class given is cell-based. The note with it: only 3 h of exposure. The method, then: To assess the activity of each drug conjugate in a model more representative of in vivo therapy, a similar assay was set up incubating RFP-expressing U87MG cells with SYTOX green and imaging every 4 h. After several time points, cells were washed and media was replaced with either fresh, drug-containing media or fresh, drug-free media (FIG. 14). All conjugates maintained high potency and inhibited proliferation after only 24 h exposure (FIG. 14B). […] The inhibition of cellular proliferation mirrored the measured cytotoxicity. All conjugates induced nearly 100% cell death when incubated without washing, with a wash of drug-containing media, or with washing after 24 h (FIG. 14D, 14E). Each construct was also evaluated under an even more stringent condition, with washing after 3 h of exposure. […] KFDC and KADC experienced substantial reductions in their respective potencies and each inhibited ˜50% of cell proliferation.
RFP-expressing U87MG cells were seeded in a 96-well plate (Corning) at a density of 2.5×10^3 cells per well and grown overnight. Cells were then treated with 200 μL of fresh media containing 10 nM Cytox Green (ThermoFisher) and KDC, KFDC, KADC, or MMAE, at the approximate ED50 of 10 nM or at the saturating concentration of 100 nM. Cells were incubated in an IncuCyte S3 Live-Cell Analysis System for 5 d with images collected every 4 h. […]

The test system of experiment [3] is RFP-expressing U87MG spheroids. Put plainly: Confocal imaging of diffusion into tumor spheroids. In kind it is cell-based. The note with it: multiple z-heights. As for the experimental part:
To verify this mechanism, an in-vitro setup was constructed to test and visualize differences in solid tumor diffusion. Solid tumor spheroids of RFP-expressing U87MG glioblastoma cells were grown in ultra-low adhesion 96-well plates. Spheroids were grown to until reaching a diameter of ˜750 μm then treated with 200 nM of AF488-labeled KDC, KFDC, or KADC and incubated for 4 h. […]
To obtain a more quantitative comparison, the relative decay of green channel intensity was compared to red channel intensity from the constitutively expressed RFP. Because the red channel should be uniform, due to stable RFP expression, and is only attenuated by the optical density of the spheroid, this signal intensity was used to correct the signal intensity of the green channel.
Spheroids of RFP-expressing U87MG cells were formed by seeding round-bottom, 96-well ultra-low adhesion plates (Corning) with 4×10^3 cells/well and centrifuging at 1000×g for 10 minutes. Spheroids were grown for 4 days, until reaching a diameter of 750 μm. Spheroids were then incubated in fresh media containing 200 nM of Alexa Fluor 488-conjugated KDC, KFDC, or KADC for 4 h. […] Quantification was performed using FIJI image analysis software. Intensity was calculated radially from the center of each spheroid and plotted as the relative ratio of green intensity corrected for the intensity of RFP as an attenuation control.

For the next experiment, the system named is U87MG tumor spheroids. Put plainly: Endpoint spheroid killing assay (SYTOX green, plate reader). In kind it is cell-based. The note with it: 100 nM. The method, then: as §1
Spheroids of U87MG cells were formed by seeding round-bottom, 96-well ultra-low adhesion plates (Corning) with 4×10^3 cells/well and centrifuging at 1000×g for 10 minutes. Spheroids were grown for 2 days before replacing media with 200 μL of fresh media containing 10 nM Cytox Green (ThermoFisher) and a range of concentrations of KDC, KFDC, KADC, or MMAE. After 4 d, trypsin-EDTA was added and cells were placed on a 60 RPM shaker for 10 min to disrupt spheroids. Green fluorescence was measured using was measured with a BioTek Synergy H4 microtiter plate reader. Percent toxicity was calculated by comparing green fluorescence to spheroids treated with lysis buffer.

Another experiment concerns U87MG cells. Put plainly: Indirect (competition) binding assay displacing Alexa Fluor 488-labeled knottin. The settings on record: competing off 1 nM AF488-2.5F on U87MG cells. The method, then: The binding affinity of the constructs described in Example 1 were measured using U87MG glioblastoma cells. Drug-free protein affinities were measured directly using Alexa Fluor 488-conjugaed proteins and drug conjugates were measured via a competition binding assay displacing Alexa Fluor 488-labeled K. All constructs tested bound to U87MG cells with low-nanomolar affinity (FIG. 9A-B).
U87MG cells were detached using Enzyme-Free Cell Dissociation Buffer (Gibco). Next, 4×10^4 cells were incubated with 1 nM of Alexa Fluor 488 labeled knottin as a competitor and varying concentrations (0.01-500 nM) of KDC, KFDC, or KADC in IBB for 3 h at 4° C. to minimize internalization. Cells were pelleted and washed twice with 800 μL of PBSA (phosphate buffered saline containing 0.1% bovine serum albumin) and the fluorescence of remaining surface-bound protein was measured by flow cytometry using a Guava EasyCyte 8HT instrument (EMD Millipore). Resulting data were evaluated using FlowJo software (TreeStar Inc) and equilibrium dissociation constants (Kd) were determined using Prism software (GraphPad). Error bars represent the standard deviation of experiments performed in triplicate.

*1 amine or outer side, *2 acyl side, *3 side chain or, on linkers, in order; H or OH if unused. Where a SMILES comes first, the peptide text is derived from it. Bridges are numbered along the chain shown (N, C = ends). Roman numbers before positions name the chains, in order. [ ]: non-standard residue; d: D form. The star is where a group is joined. X1 = O=C([C@H](CCCn1nnc2c1-c1ccccc1CN([*:3])c1ccccc1-2)N[*:1])[*:2]; Dolaproine = CO[C@@H]([C@@H]1CCCN1)[C@@H](C)C(=O)O; X3 = O=C(CCC(=O)[*:1])NCCOCCOCCOCCC(=O)[*:2]; Dil = CC[C@H](C)[C@H](NC)[C@@H](CC(=O)O)OC; PABC = O=C(OCc1ccc(N[*:1])cc1)[*:2]; X2 = C[C@@H](N*)[C@@H](O)c1ccccc1; Cit = NC(=O)NCCC[C@H](N)C(=O)O; NMeV = CN[C@H](C(=O)O)C(C)C

On to `CC[C@H](C)[C@@H]([C@@H](CC(=O)N1CCC[C@H]1[C@H](OC)[C@@H](C)C(=O)N[C@H](C)[C@@H](O)c1ccccc1)OC)N(C)C(=O)[C@@H](NC(=O)[C@H](C(C)C)N(C)C(=O)OCc1ccc(NC(=O)[C@H](CCCNC(N)=O)NC(=O)[C@@H](NC(=O)CCOCCOCCOCCNC(=O)CCC(=O)N2Cc3ccccc3-c3c(nnn3CCC[C@@H]3NC(=O)[C@@H]4CSSC[C@@H]5NC(=O)[C@H](C(C)C)NC(=O)[C@H](CSSC[C@H](NC(=O)CN)C(=O)N6CCC[C@H]6C(=O)N[C@@H](CCCNC(=N)N)C(=O)N6CCC[C@H]6C(=O)N[C@@H](CCCNC(=N)N)C(=O)NCC(=O)N[C@@H](CC(=O)O)C(=O)N[C@@H](CC(N)=O)C(=O)N6CCC[C@H]6C(=O)N6CCC[C@H]6C(=O)N[C@@H](CC(C)C)C(=O)N[C@@H]([C@@H](C)O)C(=O)N4)NC(=O)CNC(=O)[C@H](C)NC(=O)[C@H](CC(C)C)NC(=O)[C@H](CSSC[C@@H](C(=O)NCC(N)=O)NC(=O)[C@H](Cc4ccc(O)cc4)NC(=O)CNC(=O)[C@H](CC(N)=O)NC(=O)[C@@H]4CCCN4C(=O)CNC5=O)NC(=O)[C@H](CC(=O)O)NC(=O)[C@H](CO)NC(=O)[C@H](CC(=O)O)NC(=O)[C@H](CCC(N)=O)NC3=O)-c3ccccc32)C(C)C)cc1)C(C)C` [KDC] (I: H-GCPRPRGDNPPLTC[X1]QDSDCLAGCVCGPNGYCG-NH2 / II: V[Cit][PABC][NMeV]V[Dil][Dolaproine]-X2; disulfide I:2-I:24, I:14-I:26, I:20-I:32; linker I:15-II:N via X3; N-terminus assumed), for which, in the experiment with U87MG hip xenografts (dose normalized to 2.38 nmol MMAE (0.6 mg/kg KDC)), the cytostatic effect maintained is 4 of 5. In addition, the complete tumor regression in the experiment on U87MG hip xenografts (dose normalized to 2.38 nmol MMAE, 5 mice per group) is reported as 1 of 5. Further, in experiment [1] (50 or 100 nM, imaged every 4 h), the spheroid toxicity is ~100%. The “potency when co-administered with unconjugated knottin” value in experiment [1] (drug conjugate plus unconjugated knottin) is “equivalently effective with or without addition of unconjugated knottin”. Besides, in experiment [2], the “inhibition of proliferation” value was “complete cell inhibition”. In addition, the “green intensity in the center of each optical slice as a function of depth” value in experiment [3] is “remains relatively constant”. The spheroid killing entry in the experiment on U87MG tumor spheroids is “substantially more killing than KFDC, KADC, or MMAE”. Further, the Ki in the experiment on U87MG cells stood at 0.9 nM.
